According to PMC4684281, “Antitumor Effects and Mechanism of Novel Emodin Rhamnoside Derivatives against Human Cancer Cells In Vitro” (PLoS ONE, 2015):
Entries after “also recorded” stand apart in the source; their conditions may differ. Like-named read-outs stand apart in the source and are kept apart here.

What was measured:
[1] = tested on: A549 cells; test: MTT cell viability assay, A549; assay type: cell-based, Human; conditions: for IC50: A549
Method: (§1) The viability of cancer cells was evaluated by MTT assay. Briefly, cells were inoculated in 96-well culture plates at the density of 1×10^4/well with complete medium containing 10% fetal calf serum in a final volume of 0.2 mL. Cells were incubated at 37°C for at least 24 hours to allow optimal attachment. When the cells reached 60% confluence, they were treated with Cisplatin, HCPT and emodin rhamnopyranosides derivatives in various concentrations, and incubated in a humidity-controlled 5%CO2 incubator at 37°C for 72 hours. Medium were exchanged once every 24 hours. Cell control group and blank group were set up in the same manner, with each group having six parallel wells. Cell survival was assessed by directly adding 22 μL of 5mg/mL MTT to 0.2 mL medium. After three hours, the formazan precipitate was dissolved in 200μL isopropanol per well, and completely mixed under room temperature. Afterwards, the optical density of each well was detected at 570 nm wavelength by iMark microplate reader (Bio-rad,USA). This experiment was repeated at least three times.

[2] = tested on: K562 cells; test: MTT cell viability assay, K562; assay type: cell-based; conditions: Homo sapiens
Method: as §1

[3] = tested on: HepG2 cells; test: MTT cell viability assay, HepG2; assay type: cell-based, Human; conditions: for IC50: HepG2
Method: as §1

IC50 ([1]; Homo sapiens, MTT at 72h, n=3, mean±S.E.M, read-out: IC50 for EM-d-Rha, A549): 1.75 ± 0.63 µM
IC50 ([1]; Homo sapiens, MTT, 72 hours, read-out: IC50 values, A549): 2.6 µg/mL
Decrease of IC50 compared to the IC50 of emodin, A549 ([1]; from Table 1): 7.52 fold
IC50 ([2]; K562, MTT at 72h, n=3, mean±S.E.M, read-out: IC50 for EM-d-Rha, K562): 2.8 ± 0.11 µM
IC50 ([3]; Homo sapiens, MTT at 72h, n=3, mean±S.E.M, read-out: IC50 for EM-d-Rha, HepG2): 1.81 ± 0.44 µM
IC50 ([3]; Homo sapiens, MTT, 72 hours, read-out: IC50 values, HepG2): 0.65 µg/mL
Decrease of IC50 compared to the IC50 of emodin, HepG2 ([3]; from Table 1): 19.68 fold
Structure (SMILES): CC(=O)O[C@@H]1[C@@H](O[C@@H]2O[C@@H](C)[C@H](O)[C@@H](OC(C)=O)[C@H]2OC(C)=O)[C@H](C)O[C@@H](Oc2cc(O)c3c(c2)C(=O)c2cc(C)cc(O)c2C3=O)[C@@H]1OC(C)=O [S-8, 3-(2”,3”-Di-O-acetyl-α-L-rhamnopyranosyl-(1→4)-2’,3’-di-O-acetyl-α-L-rhamnopyranosyl)-emodin]
inhibition at 0.1 µM ([1]; Homo sapiens, A549, 0.1μM, MTT 72h, read-out: The inhibition rate of EM-d-Rha): 13.95 ± 0.02%
inhibition at 0.5 µM ([1]; Homo sapiens, A549, 0.5μM, MTT 72h, read-out: The inhibition rate of EM-d-Rha): 27.3 ± 2.19%
inhibition at 2.5 µM ([1]; Homo sapiens, A549, 2.5μM, MTT 72h, read-out: The inhibition rate of EM-d-Rha): 33.7 ± 1.46%
inhibition at 12.5 µM ([1]; Homo sapiens, A549, 12.5μM, MTT 72h, read-out: The inhibition rate of EM-d-Rha): 63.5 ± 1.03%
inhibition at 62.5 µM ([1]; Homo sapiens, A549, 62.5μM, MTT 72h, read-out: The inhibition rate of EM-d-Rha): 75.96 ± 0.58%
inhibition at 0.1 µM ([2]; K562, 0.1μM, MTT 72h, read-out: The inhibition rate of EM-d-Rha): 0%
inhibition at 0.5 µM ([2]; K562, 0.5μM, MTT 72h, read-out: The inhibition rate of EM-d-Rha): 15.1 ± 1.13%
inhibition at 2.5 µM ([2]; K562, 2.5μM, MTT 72h, read-out: The inhibition rate of EM-d-Rha): 45.86 ± 0.11%
inhibition at 12.5 µM ([2]; K562, 12.5μM, MTT 72h, read-out: The inhibition rate of EM-d-Rha): 78.74 ± 0.01%
inhibition at 62.5 µM ([2]; K562, 62.5μM, MTT 72h, read-out: The inhibition rate of EM-d-Rha): 80.64 ± 0.03%
Activity against HepG2 cells relative to comparators (dose-response curves) ([3]; HepG2 treated for three day, Fig 3, listed as EM-d-Rha): stronger in comparison to that of emodin; also recorded: inferior as compared to that of Cisplatin and HCPT
inhibition at 0.1 µM ([3]; Homo sapiens, HepG2, 0.1μM, MTT 72h, read-out: The inhibition rate of EM-d-Rha): 4.6 ± 5.04%
inhibition at 0.5 µM ([3]; Homo sapiens, HepG2, 0.5μM, MTT 72h, read-out: The inhibition rate of EM-d-Rha): 24.3 ± 6.54%
inhibition at 2.5 µM ([3]; Homo sapiens, HepG2, 2.5μM, MTT 72h, read-out: The inhibition rate of EM-d-Rha): 70.7 ± 3.54%
inhibition at 12.5 µM ([3]; Homo sapiens, HepG2, 12.5μM, MTT 72h, read-out: The inhibition rate of EM-d-Rha): 90.97 ± 0.72%
inhibition at 62.5 µM ([3]; Homo sapiens, HepG2, 62.5μM, MTT 72h, read-out: The inhibition rate of EM-d-Rha): 91.46 ± 0.46%
